Experimental data published in ChEMBL document CHEMBL3751693, “Synthesis, antimicrobial evaluation and molecular modeling of 5-hydroxyisoquinolinium salt series; the effect of the hydroxyl moiety” (Bioorg Med Chem, 2016).

Columns and labels:
[1] = system: Pseudomonas aeruginosa; assay: Antimicrobial activity against clinical isolate Pseudomonas aeruginosa CCM 1961 after 120 hrs; format: functional; settings: CCM 1961, 120 h
[2] = system: Candida tropicalis; assay: Antimicrobial activity against Candida tropicalis 156 after 48 hrs by spectrophotometry; format: functional; settings: Candida tropicalis, 156, 48 h
[3] = system: Escherichia coli; assay: Antimicrobial activity against clinical isolate Escherichia coli CCM 4517 after 24 hrs; format: functional; settings: CCM 4517, 24 h
[4] = system: Staphylococcus epidermidis; assay: Antimicrobial activity against clinical isolate Staphylococcus epidermidis H 696608 after 24 hrs; format: functional; settings: H 696608, 24 h
[5] = system: Nakaseomyces glabratus; assay: Antimicrobial activity against Candida glabrata 20/I after 24 hrs by spectrophotometry; format: functional
[6] = system: Klebsiella pneumoniae; assay: Antimicrobial activity against clinical isolate ESBL-Klebsiella pneumoniae J 1436808 after 24 hrs; format: functional; settings: J 1436808, 24 h
[7] = system: Nakaseomyces glabratus; assay: Antimicrobial activity against Candida glabrata 20/I after 48 hrs by spectrophotometry; format: functional
[8] = system: Lichtheimia corymbifera; assay: Antimicrobial activity against Absidia corymbifera 272 after 48 hrs by spectrophotometry; format: functional; settings: Lichtheimia corymbifera, 272, 48 h
[9] = system: Trichosporon asahii; assay: Antimicrobial activity against Trichosporon asahii 1188 after 48 hrs by spectrophotometry; format: functional; settings: Trichosporon asahii, 1188, 48 h
[10] = system: Trichophyton mentagrophytes; assay: Antimicrobial activity against Trichophyton mentagrophytes 445 after 120 hrs by spectrophotometry; format: functional; settings: Trichophyton mentagrophytes, 445, 120 h
[11] = Cytotoxicity against CHOK1 cells after 24 hrs by MTT assay; format: cell-based; settings: Cricetulus griseus, CHO-K1, 24 h
[12] = system: Pichia kudriavzevii; assay: Antimicrobial activity against Candida krusei E28 after 24 hrs by spectrophotometry; format: functional; settings: E28, 24 h
[13] = system: Aspergillus fumigatus; assay: Antimicrobial activity against Aspergillus fumigatus 231 after 48 hrs by spectrophotometry; format: functional; settings: Aspergillus fumigatus, 231, 48 h
[14] = system: Enterococcus sp.; assay: Antimicrobial activity against clinical isolate Enterococcus sp. J 1436508 after 24 hrs; format: functional; settings: J 1436508, 24 h
[15] = system: Trichophyton mentagrophytes; assay: Antimicrobial activity against Trichophyton mentagrophytes 445 after 72 hrs by spectrophotometry; format: functional; settings: Trichophyton mentagrophytes, 445, 72 h
[16] = system: Candida tropicalis; assay: Antimicrobial activity against Candida tropicalis 156 after 24 hrs by spectrophotometry; format: functional; settings: Candida tropicalis, 156, 24 h
[17] = system: Lichtheimia corymbifera; assay: Antimicrobial activity against Absidia corymbifera 272 after 24 hrs by spectrophotometry; format: functional; settings: Lichtheimia corymbifera, 272, 24 h
[18] = system: Staphylococcus aureus; assay: Antimicrobial activity against clinical isolate Staphylococcus aureus CCM 451608 after 48 hrs; format: functional; settings: CCM 451608, 48 h
[19] = system: Staphylococcus epidermidis; assay: Antimicrobial activity against clinical isolate Staphylococcus epidermidis H 696608 after 48 hrs; format: functional; settings: H 696608, 48 h
[20] = system: Staphylococcus aureus; assay: Antimicrobial activity against clinical isolate Staphylococcus aureus CCM 451608 after 24 hrs; format: functional; settings: CCM 451608, 24 h
[21] = system: Trichosporon asahii; assay: Antimicrobial activity against Trichosporon asahii 1188 after 24 hrs by spectrophotometry; format: functional; settings: Trichosporon asahii, 1188, 24 h
[22] = system: Pseudomonas aeruginosa; assay: Antimicrobial activity against clinical isolate Pseudomonas aeruginosa CCM 1961 after 72 hrs; format: functional; settings: CCM 1961, 72 h
[23] = system: Staphylococcus aureus; assay: Antimicrobial activity against clinical isolate methicillin-resistant Staphylococcus aureus H 599608 after 48 hrs; format: functional; settings: H 599608, 48 h
[24] = system: Staphylococcus aureus; assay: Antimicrobial activity against clinical isolate methicillin-resistant Staphylococcus aureus H 599608 after 24 hrs; format: functional; settings: H 599608, 24 h
[25] = system: Klebsiella pneumoniae; assay: Antimicrobial activity against clinical isolate ESBL-Klebsiella pneumoniae J 1436808 after 48 hrs; format: functional; settings: J 1436808, 48 h
[26] = system: Candida albicans; assay: Antimicrobial activity against Candida albicans ATCC 44859 after 48 hrs by spectrophotometry; format: functional; settings: ATCC 44859, 48 h
[27] = system: Escherichia coli; assay: Antimicrobial activity against clinical isolate Escherichia coli CCM 4517 after 48 hrs; format: functional; settings: CCM 4517, 48 h
[28] = system: Candida albicans; assay: Antimicrobial activity against Candida albicans ATCC 44859 after 24 hrs by spectrophotometry; format: functional; settings: ATCC 44859, 24 h
[29] = system: Aspergillus fumigatus; assay: Antimicrobial activity against Aspergillus fumigatus 231 after 24 hrs by spectrophotometry; format: functional; settings: Aspergillus fumigatus, 231, 24 h
[30] = system: Klebsiella pneumoniae; assay: Antimicrobial activity against clinical isolate Klebsiella pneumoniae D 1175008 after 48 hrs; format: functional; settings: D 1175008, 48 h
[31] = system: Klebsiella pneumoniae; assay: Antimicrobial activity against clinical isolate Klebsiella pneumoniae D 1175008 after 24 hrs; format: functional; settings: D 1175008, 24 h
[32] = system: Enterococcus sp.; assay: Antimicrobial activity against clinical isolate Enterococcus sp. J 1436508 after 48 hrs; format: functional; settings: J 1436508, 48 h
[33] = system: Pichia kudriavzevii; assay: Antimicrobial activity against Candida krusei E28 after 48 hrs by spectrophotometry; format: functional; settings: E28, 48 h

Question: For CCCCCCCCCCCCCC[N+](C)(C)Cc1ccccc1, which MBC [1] is on record?
Answer: 63 µM

Question: What about the MIC [1] of the same compound?
Answer: 16 µM

Question: And the MFC [2]?
Answer: 125 µM

Question: What about the MIC [2] of the same compound?
Answer: 3.9 µM

Question: What about the MIC [3] of the same compound?
Answer: 7.8 µM

Question: And the MIC [4]?
Answer: 1 µM

Question: And the MIC [5]?
Answer: 7.8 µM

Question: What about the MIC [6] of the same compound?
Answer: 7.8 µM

Question: And the MFC [7]?
Answer: 125 µM

Question: What about the MIC [7] of the same compound?
Answer: 7.8 µM

Question: And the MFC [8]?
Answer: 125 µM

Question: And the MIC [8]?
Answer: 31 µM

Question: And the MFC [9]?
Answer: 125 µM

Question: What about the MIC [9] of the same compound?
Answer: 31 µM

Question: And the MFC [10]?
Answer: 16 µM

Question: What about the MIC [10] of the same compound?
Answer: 16 µM

Question: And the IC50 [11]?
Answer: 24 µM

Question: And the MIC [12]?
Answer: 3.9 µM

Question: And the MFC [13]?
Answer: 125 µM

Question: What about the MIC [13] of the same compound?
Answer: 16 µM

Question: What about the MIC [14] of the same compound?
Answer: 2 µM

Question: What about the MIC [15] of the same compound?
Answer: 16 µM

Question: And the MIC [16]?
Answer: 3.9 µM

Question: And the MIC [17]?
Answer: 31 µM

Question: And the MBC [18]?
Answer: 3.9 µM

Question: What about the MIC [18] of the same compound?
Answer: 1 µM

Question: What about the MBC [19] of the same compound?
Answer: 1 µM

Question: What about the MIC [19] of the same compound?
Answer: 1 µM

Question: What about the MIC [20] of the same compound?
Answer: 1 µM

Question: What about the MIC [21] of the same compound?
Answer: 31 µM

Question: And the MIC [22]?
Answer: 16 µM

Question: And the MBC [23]?
Answer: 3.9 µM

Question: What about the MIC [23] of the same compound?
Answer: 2 µM

Question: What about the MIC [24] of the same compound?
Answer: 2 µM

Question: And the MBC [25]?
Answer: 7.8 µM

Question: What about the MIC [25] of the same compound?
Answer: 7.8 µM

Question: What about the MFC [26] of the same compound?
Answer: 125 µM

Question: And the MIC [26]?
Answer: 7.8 µM

Question: What about the MBC [27] of the same compound?
Answer: 7.8 µM

Question: What about the MIC [27] of the same compound?
Answer: 7.8 µM

Question: What about the MIC [28] of the same compound?
Answer: 7.8 µM

Question: What about the MIC [29] of the same compound?
Answer: 7.8 µM

Question: What about the MBC [30] of the same compound?
Answer: 7.8 µM

Question: And the MIC [30]?
Answer: 7.8 µM

Question: And the MIC [31]?
Answer: 7.8 µM

Question: And the MBC [32]?
Answer: 7.8 µM

Question: And the MIC [32]?
Answer: 2 µM

Question: And the MFC [33]?
Answer: 125 µM

Question: And the MIC [33]?
Answer: 3.9 µM

Question: Which MBC [1] does the source give for CCCCCCCCCC[n+]1ccc2c(O)cccc2c1 here?
Answer: > 500 µM

Question: And the MIC [1]?
Answer: 250 µM

Question: What about the MFC [2] of the same compound?
Answer: 500 µM

Question: What about the MIC [2] of the same compound?
Answer: 125 µM

Question: And the MIC [3]?
Answer: 63 µM

Question: What about the MIC [4] of the same compound?
Answer: 250 µM

Question: And the MIC [5]?
Answer: 16 µM

Question: What about the MIC [6] of the same compound?
Answer: 500 µM

Question: What about the MFC [7] of the same compound?
Answer: 63 µM

Question: What about the MIC [7] of the same compound?
Answer: 16 µM

Question: What about the MFC [8] of the same compound?
Answer: > 500 µM

Question: And the MIC [8]?
Answer: > 500 µM

Question: What about the MFC [9] of the same compound?
Answer: 500 µM

Question: And the MIC [9]?
Answer: 250 µM

Question: What about the MFC [10] of the same compound?
Answer: 125 µM

Question: What about the MIC [10] of the same compound?
Answer: 31 µM

Question: What about the IC50 [11] of the same compound?
Answer: 92 µM

Question: And the MIC [12]?
Answer: 31 µM

Question: What about the MFC [13] of the same compound?
Answer: > 500 µM

Question: And the MIC [13]?
Answer: > 500 µM

Question: And the MIC [14]?
Answer: 500 µM

Question: What about the MIC [15] of the same compound?
Answer: 31 µM

Question: And the MIC [16]?
Answer: 125 µM

Question: What about the MIC [17] of the same compound?
Answer: > 500 µM

Question: And the MBC [18]?
Answer: 63 µM

Question: And the MIC [18]?
Answer: 16 µM

Question: What about the MBC [19] of the same compound?
Answer: 250 µM

Question: And the MIC [19]?
Answer: 250 µM

Question: What about the MIC [20] of the same compound?
Answer: 16 µM

Question: And the MIC [21]?
Answer: 250 µM

Question: And the MIC [22]?
Answer: 250 µM

Question: What about the MBC [23] of the same compound?
Answer: 16 µM

Question: What about the MIC [23] of the same compound?
Answer: 31 µM

Question: What about the MIC [24] of the same compound?
Answer: 31 µM

Question: And the MBC [25]?
Answer: 500 µM

Question: And the MIC [25]?
Answer: 500 µM

Question: And the MFC [26]?
Answer: 250 µM

Question: And the MIC [26]?
Answer: 250 µM

Question: And the MBC [27]?
Answer: 63 µM

Question: What about the MIC [27] of the same compound?
Answer: 63 µM

Question: And the MIC [28]?
Answer: 250 µM

Question: And the MIC [29]?
Answer: > 500 µM

Question: And the MBC [30]?
Answer: 63 µM

Question: What about the MIC [30] of the same compound?
Answer: 63 µM

Question: What about the MIC [31] of the same compound?
Answer: 63 µM

Question: What about the MBC [32] of the same compound?
Answer: 500 µM

Question: What about the MIC [32] of the same compound?
Answer: 500 µM

Question: And the MFC [33]?
Answer: 31 µM

Question: And the MIC [33]?
Answer: 31 µM
